Patent publication US9315546B2, “Growth hormone secretatogue receptor antagonists and uses thereof” (The Administrators of the Tulane Educational Fund, priority 2010, dated 2016)
Where no end group is shown, it is not given here. [ ]: non-standard residue; d: D form.

Target: Ghrelin/GHRP/GHS Receptor (Rattus norvegicus, UniProt O08725)
Experiment: GH release from cell culture of pituitary cells
Assay type: cell-based
Design: After dispersion, the cells were collected by centrifugation, wash with DMEM and placed into culture well; endogenous in cells; host or cells: dispersed primary rat pituitary cells, 4 days in culture
Conditions: for Unstimulated Basal GH release: Table 8
Description: In vitro GH Release-Female rats of the CD-1 strain were housed in a constant temperature room at 24° C. with 14 h light and 10 h darkness. The rats were fed Purina Rat chow and water at libitum. All studies were started between 0800-1000 hours. Pituitaries of mature female Sprague Dawley rats were rapidly removed after decapitation, neurointermediate lobe discarded and then placed in a pH 7.4 buffer. The pituitaries were cut into ˜3-mm pieces and then transferred to a flask containing HEPS buffer with trypsin and incubated at 37° C. Cells were triturated several times during this period. After dispersion, the cells were collected by centrifugation, wash with DMEM and placed into culture well. Cell cultures were maintained for 4 days at 37° with 8% CO2 added to the incubator atmosphere. After 4 days in culture, cells were washed with lactated Ringer's solution adjusted to pH 7.2-7.4 and then vehicle, peptide alone or peptide plus stimulator was added to media. Incubation time was 60-120 minutes after which media was removed from each well for GH determination. The GH RIA reagents were distributed by the NIH. Control data was collected from cell cultures treated with only the corresponding vehicle in the absence of peptide or stimulator. Control stimulated data was collected from cell cultures treated with stimulator alone in the absence of any peptide.

[1] = Table 10, compound 10 μg/ml + stimulator 1 ng/ml
[2] = Table 10, compound 30 μg/ml + stimulator 1 ng/ml
[3] = Table 10, compound alone 10 μg/ml
[4] = Table 10, compound alone 30 μg/ml
[5] = Table 11, compound 10 μg/ml + stimulator 1 ng/ml
[6] = Table 11, compound 30 μg/ml + stimulator 1 ng/ml
[7] = Table 11, compound alone 10 μg/ml
[8] = Table 11, compound alone 30 μg/ml

Ghrelin/GHRP/GHS Receptor, sequence (O08725 whole entry): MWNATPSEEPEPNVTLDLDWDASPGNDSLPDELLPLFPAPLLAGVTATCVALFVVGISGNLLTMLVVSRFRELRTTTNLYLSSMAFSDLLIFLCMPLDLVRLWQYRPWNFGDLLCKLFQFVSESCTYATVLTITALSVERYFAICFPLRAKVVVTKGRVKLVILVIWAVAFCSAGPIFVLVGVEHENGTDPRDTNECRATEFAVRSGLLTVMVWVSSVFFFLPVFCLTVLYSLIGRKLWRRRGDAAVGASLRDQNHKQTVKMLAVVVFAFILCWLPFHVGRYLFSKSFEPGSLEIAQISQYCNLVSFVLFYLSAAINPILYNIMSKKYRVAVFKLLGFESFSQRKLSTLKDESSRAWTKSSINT

Ac-DβNal-PlcLys-ILys-DPhe-NH2 [11-Ac-DβNal-PlcLys-ILys-DPhe-NH2]
Unstimulated Basal GH release (peptide 3 μg/ml): 1013 ± 207 ng/mL | Unstimulated Basal GH release (peptide 10 μg/ml): 976 ± 13 ng/mL | Unstimulated Basal GH release (peptide 30 μg/ml): 928 ± 16 ng/mL

αAib-DTrp-DAla-cyclohexylAla-NH2 [4-αAib-DTrp-DAla-cyclohexylAla-NH2]
Unstimulated Basal GH release (peptide 1 μg/ml): 1086 ± 52 ng/mL | Unstimulated Basal GH release (peptide 3 μg/ml): 1103 ± 18 ng/mL | Unstimulated Basal GH release (peptide 10 μg/ml): 994 ± 22 ng/mL | Unstimulated Basal GH release (peptide 30 μg/ml): 704 ± 115 ng/mL

DPhe-Ala-Phe-DPal-NH2 [6-DPhe-Ala-Phe-DPal-NH2]
Unstimulated Basal GH release (peptide 3 μg/ml): 170 ± 19 ng/mL | Unstimulated Basal GH release (peptide 10 μg/ml): 181 ± 31 ng/mL | Unstimulated Basal GH release (peptide 30 μg/ml): 161 ± 20 ng/mL | Unstimulated Basal GH release (peptide 100 μg/ml): 146 ± 21 ng/mL

N[C@H](Cc1c[nH]c2ccccc12)C(=O)N1CCC(c2ccccc2)CC1 [1-DTrp-4-phenylpiperdinamide, DTrp-4-phenylpiperdinamide]
Stimulated GH release (P + S) (Table 10, compound 1 μg/ml + stimulator 1 ng/ml): 1085 ± 1 ng/mL | Stimulated GH release (P + S) (Table 10, compound 3 μg/ml + stimulator 1 ng/ml): 917 ± 4 ng/mL | Stimulated GH release (P + S) [1]: 344 ± 6 ng/mL | Stimulated GH release (P + S) [2]: 486 ± 29 ng/mL | Unstimulated GH release (Table 10, compound alone 1 μg/ml): 815 ± 26 ng/mL | Unstimulated GH release (Table 10, compound alone 3 μg/ml): 390 ± 35 ng/mL | Unstimulated GH release [3]: 520 ± 61 ng/mL | Unstimulated GH release [4]: 577 ± 24 ng/mL

N[C@H](COCc1ccccc1)C(=O)N1CCN(c2ccccc2)CC1 [6-D Ser(BZL)-N′-phenyl-N-piperazinamide, D Ser(BZL)-N′-phenyl-N-piperazinamide]
Stimulated GH release (P + S) [1]: 719 ± 26 ng/mL | Stimulated GH release (P + S) [2]: 435 ± 0 ng/mL | Unstimulated GH release [3]: 585 ± 10 ng/mL | Unstimulated GH release [4]: 368 ± 2 ng/mL

DPal-Phe-DTrp-Phe-Met-NH2 [12-DPal-Phe-DTrp-Phe-Met-NH2]
Unstimulated Basal GH release (peptide 3 μg/ml): 1081 ± 50 ng/mL | Unstimulated Basal GH release (peptide 10 μg/ml): 997 ± 30 ng/mL | Unstimulated Basal GH release (peptide 30 μg/ml): 425 ± 25 ng/mL

1,3-diaminobutyricamide-DβNal-4-phenylpiperidinamide
Stimulated GH release (P + S) [5]: 644 ± 33 ng/mL | Stimulated GH release (P + S) [6]: 529 ± 20 ng/mL | Unstimulated GH release [7]: 794 ± 34 ng/mL | Unstimulated GH release [8]: 504 ± 20 ng/mL

Arg-DTrp-Leu-Tyr-Trp-Pro(cyclic Arg-Pro) (WLYWP; HELM PEPTIDE1{R.[dW].L.Y.W.P}$PEPTIDE1,PEPTIDE1,1:R1-6:R2$$$V2.0; SMILES CC(C)C[C@@H]1NC(=O)[C@@H](Cc2c[nH]c3ccccc23)NC(=O)[C@H](CCCNC(=N)N)NC(=O)[C@@H]2CCCN2C(=O)[C@H](Cc2c[nH]c3ccccc23)NC(=O)[C@H](Cc2ccc(O)cc2)NC1=O)
Unstimulated Basal GH release (peptide 3 μg/ml): 1480 ± 19 ng/mL | Unstimulated Basal GH release (peptide 10 μg/ml): 802 ± 26 ng/mL | Unstimulated Basal GH release (peptide 30 μg/ml): 601 ± 16 ng/mL | Unstimulated Basal GH release (peptide 100 μg/ml): 509 ± 49 ng/mL

[dF]AF[dF]K-NH2 [7-DPhe-Ala-Phe-DPhe-Lys-NH2]
Unstimulated Basal GH release (peptide 10 μg/ml): 267 ± 27 ng/mL | Unstimulated Basal GH release (peptide 30 μg/ml): 276 ± 65 ng/mL | Unstimulated Basal GH release (peptide 100 μg/ml): 360 ± 84 ng/mL

αAib-DTrp-DcyclohexylAla-NH2 [3-αAib-DTrp-DcyclohexylAla-NH2]
Unstimulated Basal GH release (peptide 1 μg/ml): 980 ± 44 ng/mL | Unstimulated Basal GH release (peptide 3 μg/ml): 826 ± 32 ng/mL | Unstimulated Basal GH release (peptide 10 μg/ml): 602 ± 53 ng/mL | Unstimulated Basal GH release (peptide 30 μg/ml): 492 ± 11 ng/mL

Ac-[dK]Y[dW][dW]F-NH2 [9-Ac-DLys-Tyr-DTrp-DTrp-Phe-NH2]
Unstimulated Basal GH release (peptide 3 μg/ml): 105 ± 8 ng/mL | Unstimulated Basal GH release (peptide 10 μg/ml): 950 ± 91 ng/mL | Unstimulated Basal GH release (peptide 30 μg/ml): 782 ± 56 ng/mL | Unstimulated Basal GH release (peptide 100 μg/ml): 756 ± 1 ng/mL

p-phenyl(piperidinamide-DTrpLysSer(BZL)-acetylamide
Stimulated GH release (P + S) (Table 11, compound 1 μg/ml + stimulator 1 ng/ml): 680 ± 13 ng/mL | Stimulated GH release (P + S) (Table 11, compound 3 μg/ml + stimulator 1 ng/ml): 489 ± 41 ng/mL | Stimulated GH release (P + S) [5]: 245 ± 16 ng/mL

COc1ccccc1C1CCN(C(=O)[C@@H](Cc2c[nH]c3ccccc23)NC(=O)C(C)(C)N)CC1 [αAibDTrp-p-(α-methoxylphenyl) piperidinamide]
Stimulated GH release (P + S) [5]: 441 ± 21 ng/mL | Stimulated GH release (P + S) [6]: 384 ± 16 ng/mL | Unstimulated GH release [7]: 365 ± 2 ng/mL | Unstimulated GH release [8]: 375 ± 30 ng/mL

DPal-Trp-DPhe-Phe-Met-NH2 [14-DPal-Trp-DPhe-Phe-Met-NH2]
Unstimulated Basal GH release (peptide 3 μg/ml): 1105 ± 18 ng/mL | Unstimulated Basal GH release (peptide 10 μg/ml): 891 ± 4 ng/mL | Unstimulated Basal GH release (peptide 30 μg/ml): 567 ± 24 ng/mL
